4 molecules from PMC7397056, “Design, Facile Synthesis and Characterization of Dichloro Substituted Chalcones and Dihydropyrazole Derivatives for Their Antifungal, Antitubercular and Antiproliferative Activities” (Molecules, 2020) can be followed below.

In brackets after ≈: the same amount, converted by molar mass. Where only a bound is given, the exact number is not on record here.

Data set [1] concerns Candida tropicalis (ATCC-1369). Put plainly: Antifungal activity, serial tube dilution method (MIC). As to conditions: for MIC: Candida tropicalis, ATCC1369, 18 h, read-out: Antifungal activity MIC, C. tropicalis, serial tube dilution, 37 °C, 18 h, average of three.
Data set [2] concerns Aspergillus niger (ATCC-6275). Described as above. As to conditions: for MIC: Aspergillus niger, ATCC6275, 18 h, read-out: Antifungal activity MIC, A. niger, serial tube dilution, 37 °C, 18 h, average of three.
For data set [3], the system named is Mycobacterium tuberculosis H37Rv. The data set is described as follows: Antitubercular activity, broth dilution assay (MIC). As to conditions: for fold more antitubercular activity than the chalcones 14 and 16: 29 vs 14, 31 vs 16; for MIC: Mycobacterium tuberculosis, H37RV, 504 h, Middlebrook 7H9 broth, 37 °C, 21 days. Format: cell-based.
The nature of data set [4]: Cytotoxic activity on normal cells, MTT assay. In kind it is cell-based. As for the experimental part: (§1) The antiproliferative activity of the compounds was determined their IC50 values. Methotrexate (Mtx; positive control) was used as a reference standard for comparing the antiproliferative activity of the target compounds. The MTT (3-(4,5-dimethylthiazol-2-yl)-2,5-diphenyl tetrazolium bromide) assay was based on the reduction of the soluble MTT (0.5 mg mL^−1, 100 µL) into a blue-purple formazan product, mainly by the activity of mitochondrial reductase enzymes inside the living cells. The prostate cancer cell lines, DU-145 cells, were cultured in Dulbecco’s Modified Eagle Medium (DMEM) media at 37 °C and humidified at 5% CO2. Stock solutions of the test compounds (17–46) were prepared in 0.1% DMSO followed by dilution with sterile water to obtain the desired final concentrations. Briefly, the cells were placed on 96-well plates at 100 µL total volume with the density of 1 × 10^4 cells per well and were allowed to adhere for 24 h. Then the medium was replaced with fresh media containing different dilutions of the test compounds and incubated for additional 48 h at 37 °C in DMEM with 10% fetal bovine serum (FBS) medium. Subsequently, the medium was replaced with 90 μL of fresh DMEM without FBS. The above wells were treated with 10 μL of MTT reagent (5 mg/mL of stock solution in DMEM without FBS) and incubated at 37 °C for 3–4 h. The formed blue formazan crystals were dissolved in 200 μL of DMSO. The optical density was determined at 570 nm using a micro plate reader. The assay was performed in triplicate for three independent experiments. The same experimentation was also done to confirm that the DMSO (negative control) had no effect in the study. The results had good reproducibility between replicate wells with standard errors below 10%. The antiproliferative activity results measured as IC50 values in µg/mL were converted and expressed in µM. Additionally, the cytotoxic activity of the compounds was also measured employing the same protocol discussed above to assess their toxicity on normal human cell lines (L02).
In general terms: Formazan colour is commonly taken as a measure of viable cells.

In data set [5] the test system is prostate cancer cell lines (DU-145). The data set is described as follows: Antiproliferative activity, MTT assay. In kind it is cell-based. As to conditions: Homo sapiens, 48 h, mean ± SD (n = 3). On the procedure: as §1
The test system of data set [6] is normal human cell lines (L02). The data set is described as follows: Cytotoxic activity on normal cells, MTT assay. Format: cell-based. As to conditions: normal human cell line L02. As for the experimental part:
as §1

[7] abbreviates: L02 cells (normal human cell line).

Broadly, the MIC is the smallest concentration in the dilution series that meets the test's criterion for growth inhibition. For orientation: IC50 means the concentration needed to halve the response being measured. Higher therefore signals weaker potency in that assay. Broadly, the melting point is the temperature of the solid-liquid transition. Take `Clc1ccc(C2=NN(c3ccccc3)C(c3ccco3)C2)cc1Cl` (stereo not shown) [Compound 29, 3-(3,4-dichlorophenyl)-1-phenyl-5-(furan-2-yl)-4,5-dihydro-1H-pyrazole]: the melting point worked out at 200 °C. Moreover, the MIC in data set [1] was 11.2 µM (≈ 4 µg/mL). Further, in data set [2], the MIC came to 11.2 µM (≈ 4 µg/mL). In data set [3], the “fold more antitubercular activity than the chalcones 14 and 16” value amounted to 2.6 fold; inhibition of growth (MIC) required 17.5 µM (≈ 6.25 µg/mL). In addition, in data set [4] (setting [7]), the IC50 at 48 h was more than 75 µg/mL. The molecule further returned an IC50 in data set [5] of 162 ± 2 µM.
`Clc1ccc(C2=NN(c3ccccc3)C(c3ccc[nH]3)C2)cc1Cl` (stereo not shown) [Compound 30, 3-(3,4-dichlorophenyl)-1-phenyl-5-(1H-pyrrol-2-yl)-4,5-dihydro-1H-pyrazole] yielded a melting point of 171 °C. Moreover, in data set [1], the MIC was determined as 44.9 µM (≈ 16 µg/mL). Further, the MIC in data set [2] is 44.9 µM (≈ 16 µg/mL). This molecule also registered an MIC in data set [3] of 70.2 µM (≈ 25 µg/mL). Also, in data set [3] (comparator compound 15), the “fold reduction in antitubercular activity compared with chalcone 15” value turned out to be 1.5 fold. Moreover, the IC50 at 48 h in data set [4] (setting [7]) was more than 75 µg/mL. The IC50 in data set [5] amounted to 84 ± 2 µM.
For the molecule `Clc1ccc(C2=NN(c3ccccc3)C(c3cccs3)C2)cc1Cl` (stereo not shown) [Compound 31, 3-(3,4-dichlorophenyl)-1-phenyl-5-(thiophen-2-yl)-4,5-dihydro-1H-pyrazole], the melting point came out at 212 °C. Moreover, in data set [1], the “fold better activity in comparison to fluconazole, Candida tropicalis” value is given as 3.7 fold and the minimum inhibitory concentration (MIC) is 5.35 µM (≈ 2 µg/mL). The “fold improvement in MIC of dihydropyrazole over chalcone 16, Candida tropicalis” value in data set [1] (31 (5.35 µM) vs 16 (14.12 µM)) worked out at 2.6 fold. In addition, in data set [2], the “fold better activity in comparison to fluconazole, Aspergillus niger” value stood at 4.9 fold and the MIC worked out at 5.35 µM (≈ 2 µg/mL). Also, in data set [2] (31 (5.35 µM) vs 16 (14.12 µM)), the “fold improvement in MIC of dihydropyrazole over chalcone 16, Aspergillus niger” value turned out to be 2.6 fold. Also, in data set [3], the “fold more antitubercular activity than the chalcones 14 and 16” value is 2.6 fold; the MIC amounted to 8.35 µM (≈ 3.12 µg/mL). This molecule also displayed an IC50 at 48 h in data set [4] (normal human cell line L02) of more than 75 µg/mL. In data set [5], this molecule had an IC50 of 32 ± 1 µM.
On to `CN(Cc1cnc2nc(N)nc(N)c2n1)c1ccc(C(=O)N[C@@H](CCC(=O)O)C(=O)O)cc1` [Methotrexate, reference compound], for which the “Cytotoxic activity IC50, L02” value in data set [6] is reported as more than 75 µg/mL. Further, the 50% inhibitory concentration (IC50) at 48 h in data set [4] (setting [7]) is more than 75 µg/mL. This molecule had an IC50 in data set [5] of 11 ± 1 µM.
